Reference: patent US12503475B2 (Centessa Pharmaceuticals (UK) Limited, priority 2020, dated 2025)

Target: T1, human orexin type 2 receptor (hOX2R) (Homo sapiens, UniProt O43614)
T1 construct: expressed in transfected cells
T1 sequence (O43614 1-444): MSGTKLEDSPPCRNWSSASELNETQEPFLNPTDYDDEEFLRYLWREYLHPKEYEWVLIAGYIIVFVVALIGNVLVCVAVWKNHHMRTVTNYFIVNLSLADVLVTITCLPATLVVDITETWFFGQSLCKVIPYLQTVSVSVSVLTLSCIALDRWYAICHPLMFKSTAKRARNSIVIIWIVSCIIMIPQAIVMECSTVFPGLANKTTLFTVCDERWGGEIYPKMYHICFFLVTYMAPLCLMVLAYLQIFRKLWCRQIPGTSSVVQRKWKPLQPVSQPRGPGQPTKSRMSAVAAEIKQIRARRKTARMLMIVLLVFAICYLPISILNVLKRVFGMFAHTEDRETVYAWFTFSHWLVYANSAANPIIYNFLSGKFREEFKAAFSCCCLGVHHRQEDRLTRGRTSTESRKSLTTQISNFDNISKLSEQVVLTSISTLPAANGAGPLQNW
Test: Measurement of orexin type 2 receptor agonist activity (FLIPR calcium fluorescence)
Type: cell-based
Settings: CHO cells expressing hOX2R, FLIPR calcium fluorescence; for EC50: read-out: hOx2 pEC50 (converted); for Emax: CHO, read-out: hOx2 Emax (%)
Procedure, shortened: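 Agonism was read as fluorescence in cells stably expressing human OX2R. E. is the response at 10 μM relative to orexin A as full agonist (100%).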

Row | Compound | EC50 | Emax | hOx2 pEC50 | hOx2 Emax (%)
1 | COCCN(C)C(=O)N1CC2(CC2)[C@H](NS(C)(=O)=O)[C@@H]1Cc1cccc(-c2ccccc2)c1F [Compound 326, (6S,7S)-6-((2-fluoro-[1,1′-biphenyl]-3-yl)methyl)-N-(2-methoxyethyl)-N-methyl-7-(methylsulfonamido)-5-azaspiro[2.4]heptane-5-carboxamide] | 1 to 10 nM | 90 to 100% | – | –
2 | CN(CCC#N)C(=O)N1CC2(CC2)[C@H](NS(C)(=O)=O)[C@@H]1Cc1cccc(-c2ccccc2)c1F [Compound 327, (6S,7S)-N-(2-cyanoethyl)-6-((2-fluoro-[1,1′-biphenyl]-3-yl)methyl)-N-methyl-7-(methylsulfonamido)-5-azaspiro[2.4]heptane-5-carboxamide] | 1 to 10 nM | 90 to 100% | – | –
3 | C[C@@H](C#N)S(=O)(=O)N[C@@H]1[C@H](Cc2cccc(-c3ccccc3)c2)N(C(=O)[C@H]2CCO2)CC12CC2 [Compound 338, (S)-N-((6S,7S)-6-([1,1′-biphenyl]-3-ylmethyl)-5-((R)-oxetane-2-carbonyl)-5-azaspiro[2.4]heptan-7-yl)-1-cyanoethane-1-sulfonamide] | 10 to 100 nM | 90 to 100% | – | –
4 | COc1c(C[C@H]2[C@@H](NS(C)(=O)=O)C3(CC3)CN2C(=O)C2CC(F)C2)cccc1-c1ccccc1 (stereo partly drawn) [Compound 339, N-((6S,7S)-5-(3-fluorocyclobutane-1-carbonyl)-6-((2-methoxy-[1,1′-biphenyl]-3-yl)methyl)-5-azaspiro[2.4]heptan-7-yl)methanesulfonamide] | – | 70 to 80% | *** (pEC50 ranging between 7.0 and 8.0) | –
5 | COc1c(C[C@H]2[C@@H](NS(C)(=O)=O)C3(CC3)CN2C(=O)C2CC(F)C2)cccc1-c1ccccc1 (stereo partly drawn) [Compound 340, N-((6S,7S)-5-(3-fluorocyclobutane-1-carbonyl)-6-((2-methoxy-[1,1′-biphenyl]-3-yl)methyl)-5-azaspiro[2.4]heptan-7-yl)methanesulfonamide] | – | – | *** (pEC50 ranging between 7.0 and 8.0) | D (Emax ranging between 60 and 70)
6 | CCCNC(=O)N1CC2(CC2)[C@H](NS(C)(=O)=O)[C@@H]1Cc1cccc(-c2ccccc2)c1OC [Compound 342, (6S,7S)-6-((2-methoxy-[1,1′-biphenyl]-3-yl)methyl)-7-(methylsulfonamido)-N-propyl-5-azaspiro[2.4]heptane-5-carboxamide] | 10 to 100 nM | 70 to 80% | – | –
7 | COc1c(C[C@H]2[C@@H](NS(C)(=O)=O)C3(CC3)CN2C(=O)NCC(F)(F)F)cccc1-c1ccccc1 [Compound 343, (6S,7S)-6-((2-methoxy-[1,1′-biphenyl]-3-yl)methyl)-7-(methylsulfonamido)-N-(2,2,2-trifluoroethyl)-5-azaspiro[2.4]heptane-5-carboxamide] | 10 to 100 nM | 70 to 80% | – | –
8 | CCS(=O)(=O)N[C@@H]1[C@H](Cc2cccc(-c3ccccc3)c2F)N(C(=O)[C@H](O)COC)CC12CC2 [Compound 344, N-((6S,7S)-6-((2-fluoro-[1,1′-biphenyl]-3-yl)methyl)-5-((R)-2-hydroxy-3-methoxypropanoyl)-5-azaspiro[2.4]heptan-7-yl)ethanesulfonamide] | 1 to 10 nM | 90 to 100% | – | –
9 | [2H]C([2H])([2H])N(C(=O)N1CC2(CC2)[C@H](NS(C)(=O)=O)[C@@H]1Cc1cccc(-c2ccccc2)c1F)C([2H])([2H])[2H] [Compound 345, (6S,7S)-6-((2-fluoro-[1,1′-biphenyl]-3-yl)methyl)-N,N-bis(methyl-d3)-7-(methylsulfonamido)-5-azaspiro[2.4]heptane-5-carboxamide] | 1 to 10 nM | 90 to 100% | – | –
10 | CN(C)S(=O)(=O)N[C@@H]1[C@H](Cc2cc(F)cc(-c3ccccc3)c2F)N(C(=O)C2CCO2)CC12CC2 (stereo partly drawn) [Compound 347, N-((6S,7S)-6-((2,5-difluoro-[1,1′-biphenyl]-3-yl)methyl)-5-((R)-oxetane-2-carbonyl)-5-azaspiro[2.4]heptan-7-yl)-N,N-dimethylsulfuric diamide] | 1 to 10 nM | 90 to 100% | – | –

Results, then the molecule that gave them:

Row | EC50 | Emax | hOx2 pEC50 | hOx2 Emax (%) | Compound
11 | 1 to 10 nM | 90 to 100% | – | – | COC[C@@H](C)NC(=O)N1CC2(CC2)[C@H](NS(C)(=O)=O)[C@@H]1Cc1cccc(-c2ccccc2)c1F [Compound 325, (6S,7S)-6-((2-fluoro-[1,1′-biphenyl]-3-yl)methyl)-N-((R)-1-methoxypropan-2-yl)-7-(methylsulfonamido)-5-azaspiro[2.4]heptane-5-carboxamide]
12 | 1 to 10 nM | 90 to 100% | – | – | COC[C@H](C)NC(=O)N1CC2(CC2)[C@H](NS(C)(=O)=O)[C@@H]1Cc1cccc(-c2ccccc2)c1F [Compound 328, (6S,7S)-6-((2-fluoro-[1,1′-biphenyl]-3-yl)methyl)-N-((S)-1-methoxypropan-2-yl)-7-(methylsulfonamido)-5-azaspiro[2.4]heptane-5-carboxamide]
13 | 1 to 10 nM | 90 to 100% | – | – | CS(=O)(=O)N[C@@H]1[C@H](Cc2cccc(-c3ccccc3)c2F)N(C(=O)NC[C@@H]2CCOC2)CC12CC2 [Compound 329, (6S,7S)-6-((2-fluoro-[1,1′-biphenyl]-3-yl)methyl)-7-(methylsulfonamido)-N-(((S)-tetrahydrofuran-3-yl)methyl)-5-azaspiro[2.4]heptane-5-carboxamide]
14 | 1 to 10 nM | 90 to 100% | – | – | CS(=O)(=O)N[C@@H]1[C@H](Cc2cccc(-c3ccccc3)c2F)N(C(=O)NCCC#N)CC12CC2 [Compound 330, (6S,7S)-N-(2-cyanoethyl)-6-((2-fluoro-[1,1′-biphenyl]-3-yl)methyl)-7-(methylsulfonamido)-5-azaspiro[2.4]heptane-5-carboxamide]
15 | 1 to 10 nM | 90 to 100% | – | – | CS(=O)(=O)N[C@@H]1[C@H](Cc2cccc(-c3ccccc3)c2F)N(C(=O)NC[C@H]2CCO2)CC12CC2 [Compound 331, (6S,7S)-6-((2-fluoro-[1,1′-biphenyl]-3-yl)methyl)-7-(methylsulfonamido)-N-(((R)-oxetan-2-yl)methyl)-5-azaspiro[2.4]heptane-5-carboxamide]
16 | 1 to 10 nM | 90 to 100% | – | – | CN(CC1CC1)C(=O)N1CC2(CC2)[C@H](NS(C)(=O)=O)[C@@H]1Cc1cccc(-c2ccccc2)c1F [Compound 332, (6S,7S)-N-(cyclopropylmethyl)-6-((2-fluoro-[1,1′-biphenyl]-3-yl)methyl)-N-methyl-7-(methylsulfonamido)-5-azaspiro[2.4]heptane-5-carboxamide]
17 | 1 to 10 nM | 90 to 100% | – | – | CS(=O)(=O)N[C@@H]1[C@H](Cc2cccc(-c3ccccc3)c2F)N(C(=O)NC[C@@H]2CCO2)CC12CC2 [Compound 333, (6S,7S)-6-((2-fluoro-[1,1′-biphenyl]-3-yl)methyl)-7-(methylsulfonamido)-N-(((S)-oxetan-2-yl)methyl)-5-azaspiro[2.4]heptane-5-carboxamide]
18 | 1 to 10 nM | 90 to 100% | – | – | CS(=O)(=O)N[C@@H]1[C@H](Cc2cccc(-c3ccccc3)c2F)N(C(=O)NCC2COC2)CC12CC2 [Compound 334, (6S,7S)-6-((2-fluoro-[1,1′-biphenyl]-3-yl)methyl)-7-(methylsulfonamido)-N-(oxetan-3-ylmethyl)-5-azaspiro[2.4]heptane-5-carboxamide]
19 | 1 to 10 nM | 90 to 100% | – | – | CS(=O)(=O)N[C@@H]1[C@H](Cc2cccc(-c3ccccc3)c2F)N(C(=O)NC[C@H]2CCOC2)CC12CC2 [Compound 335, (6S,7S)-6-((2-fluoro-[1,1′-biphenyl]-3-yl)methyl)-7-(methylsulfonamido)-N-(((R)-tetrahydrofuran-3-yl)methyl)-5-azaspiro[2.4]heptane-5-carboxamide]
20 | 1 to 10 nM | 90 to 100% | – | – | CO[C@@H](C)CNC(=O)N1CC2(CC2)[C@H](NS(C)(=O)=O)[C@@H]1Cc1cccc(-c2ccccc2)c1F [Compound 336, (6S,7S)-6-((2-fluoro-[1,1′-biphenyl]-3-yl)methyl)-N-((S)-2-methoxypropyl)-7-(methylsulfonamido)-5-azaspiro[2.4]heptane-5-carboxamide]
21 | 1 to 10 nM | 90 to 100% | – | – | C[C@@H](CF)NC(=O)N1CC2(CC2)[C@H](NS(C)(=O)=O)[C@@H]1Cc1cccc(-c2ccccc2)c1F [Compound 337, (6S,7S)-6-((2-fluoro-[1,1′-biphenyl]-3-yl)methyl)-N-((S)-1-fluoropropan-2-yl)-7-(methylsulfonamido)-5-azaspiro[2.4]heptane-5-carboxamide]
22 | 0.0794 to 1 nM | 90 to 100% | – | – | CC(C#N)NC(=O)N1CC2(CC2)[C@H](NS(C)(=O)=O)[C@@H]1Cc1cccc(-c2ccccc2)c1F (stereo partly drawn) [Compound 341, (6S,7S)-N-(1-cyanoethyl)-6-((2-fluoro-[1,1′-biphenyl]-3-yl)methyl)-7-(methylsulfonamido)-5-azaspiro[2.4]heptane-5-carboxamide]
23 | 1 to 10 nM | 90 to 100% | – | – | C[C@H](F)C(=O)N1CC2(CC2)[C@H](NS(C)(=O)=O)[C@@H]1Cc1cccc(-c2ccccc2)c1F [Compound 346, N-((6S,7S)-6-((2-fluoro-[1,1′-biphenyl]-3-yl)methyl)-5-((S)-2-fluoropropanoyl)-5-azaspiro[2.4]heptan-7-yl)methanesulfonamide]
